Assay results from PubChem BioAssay (NCI).
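Five concentrations, 48 hours, 96-well plates. The concentration for full growth arrest is given as TGI.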

Key:
Test in all cases: DTP human tumour cell line panel, 48 h
UACC-62 melanoma = test system: UACC-62 melanoma
U251 CNS = test system: U251 CNS
SW-620 colon = test system: SW-620 colon
NCI-H460 lung = test system: NCI-H460 lung
OVCAR-5 ovarian = test system: OVCAR-5 ovarian
EKVX NSCLC = test system: EKVX NSCLC
MDA-MB-435 = test system: MDA-MB-435
PC-3 prostate = test system: PC-3 prostate
TK-10 renal = test system: TK-10 renal
SR leukemia = test system: SR leukemia

| SMILES | TGI (UACC-62 melanoma) [µM] | TGI (U251 CNS) [µM] | TGI (SW-620 colon) [µM] | TGI (NCI-H460 lung) [µM] | TGI (OVCAR-5 ovarian) [µM] | TGI (EKVX NSCLC) [µM] | TGI (MDA-MB-435) [µM] | TGI (PC-3 prostate) [µM] | TGI (TK-10 renal) [µM] | TGI (SR leukemia) [µM] |
| --- | --- | --- | --- | --- | --- | --- | --- | --- | --- | --- |
| CC(=O)Nc1c(C)cc2c(nc3n2CCC3O)c1[N+](=O)[O-] (centres undefined) | > 100 | > 100 | > 100 | > 100 | > 100 | > 100 | > 100 | > 100 | – | – |
| CC(C)NC(=O)CN1CCN(c2c(O)c3c(c(O)c2Cl)C(=O)C=CC3=O)CC1 | 3.22 | 10.3 | 1.92 | 22.1 | 6.54 | 12 | 3.38 | 4.75 | 4.27 | – |
| C=C1C2C[C@@H]3O[C@H]4C[C@H]5O[C@@]6(C[C@@H]7O[C@]8(C[C@H](C)[C@@H]9O[C@@H]%10CC(CO)O[C@@H]%10C[C@@H]9O8)C[C@H](C)[C@@H]7O6)C[C@H]5O[C@H]4[C@H](C)[C@H]3OC(=O)C[C@H]3CC[C@@H]4OC5[C@H]6O[C@]7(CC[C@H]8CC(=C)[C@H](CC[C@@H](C[C@H]1C)O2)O8)CC6O[C@@H]5[C@@H](O7)[C@H]4O3 (some centres undefined) | > 1 | > 1 | > 1 | – | > 1 | > 1 | < 0.0001 | > 1 | > 1 | > 1 |
| COc1ccc(/C=C2\CCC(C)C3=C2N=c2s/c(=C/c4cccc(Br)c4)c(=O)n2C3c2ccc(OC)c(OC)c2)cc1OC (centres undefined) | > 100 | > 100 | > 100 | – | > 100 | > 100 | > 100 | > 100 | > 100 | > 100 |
| Cc1ccc2c(c1)-c1nc(N)c(C#N)c(-c3ccccc3)c1CCS2(=O)=O | > 100 | > 100 | > 100 | > 100 | > 100 | – | > 100 | > 100 | 61 | – |
| O=C1c2ccc(O)c(O)c2C(=O)c2c(O)ccc(O)c21 | 41.6 | > 100 | > 100 | 49.8 | 76.5 | 67.4 | – | – | > 100 | 93.7 |
| OCCNCNc1nc(NCNCCO)nc(N(CNCCO)CNCCO)n1 | 35.6 | 43.7 | > 54 | 59.4 | 21 | 57 | 35.8 | 50 | 72.1 | – |
| O=C(Nc1nc(C23CC4CC(CC(C4)C2)C3)cs1)c1cc2ccccc2oc1=O | – | > 100 | > 100 | > 100 | > 100 | > 100 | > 100 | > 100 | > 100 | > 100 |
